Measured values: paper PMC7279038, “Antioxidant and Neuroprotective Effects Induced by Cannabidiol and Cannabigerol in Rat CTX-TNA2 Astrocytes and Isolated Cortexes” (International Journal of Molecular Sciences, 2020)

Columns and labels:
[1] = test system: isolated rat cortexes, 3-HK; test: K+ 60 mM neurotoxicity paradigm, 3-HK level; settings: for effect on K+ 60 mM-induced increase in 3-HK level: CBD 1000 nM, CBG 1 nM
Procedure: Sprague–Dawley rats (200–250 g) were sacrificed by CO2 inhalation (Italian Health Ministry authorization N. F4738.N.XTQ, delivered on 11th November 2018) and isolated prefrontal cortex specimens were immediately explanted and incubated in thermostatic shaking bath at 37 °C for 1 h (incubation period), in Krebs–Ringer buffer at the following K^+ concentrations:
Cortexes were stimulated with CBD (1000 nM) and […]. Afterwards, specimens were homogenized in perchloric acid solution (0.05 M) for the extraction and quantification of nitrites, via the aforementioned colorimetric Griess assay, and serotonin (5-HT), 5-hydroxyindoleacetic (5HIIA),3-hydroxykinurenine (3-HK) and kinurenic acid (KA) (ng/mg wet tissue) via high performance liquid chromatography analysis. Additionally, an untargeted proteomic analysis was carried out on the cortex homogenate. The analytical protocols for 5-HT, 5HIIA, 3-HK, KA and protein level determinations are described below. The analyses were conducted in triplicate and in independent facilities with blind modality.
Tissue 3-HK, 5-HT and 5HIIA levels were analyzed through an HPLC apparatus consisting of a Jasco (Tokyo, Japan) PU-2080 chromatographic pump and an ESA (Chelmsford, MA, USA) Coulochem III coulometric detector, equipped with a microdialysis cell (ESA-5014b), a porous graphite working electrode and a solid state palladium reference electrode. The analytical conditions for identification and quantification were selected according to previous studies. Specifically, the analytical cell was set at −0.150 V for detector 1 and at +0.300 V for detector 2, with a range of 100 nA. The chromatograms were monitored at the analytical detector 2. […] Sample concentrations were calculated by linear regression curve (y = bx + m) obtained with standard. Neither internal nor external standards were necessary for analyte quantification in the cortex homogenate, and all tests performed for method validation and yielded results in accordance with limits indicated in official guidelines for applicability in laboratory trials. […]

[2] = test system: 5-HT receptor (5-HT1A); settings: cited from earlier work
[3] = test system: CTX-TNA2 astrocyte cell line; test: Apoptosis occurrence, Annexin-V/PI flow cytometry; format: cell-based, rat; settings: challenged with H2O2; CBD 1000 nM, CBG 1 nM; 24 h, lasting up to 48 h
Procedure: The CTX-TNA2 rat astrocytes were purchased from the European Collection of Cell Cultures (ECACC), Sigma-Aldrich, Milan, Italy, and cultured as already indicated. Cells were grown in Dulbecco’s Modified Eagle Medium supplemented with 10% of FBS and penicillin–streptomycin (100 µgmL^−1) (all from EuroClone SpA Life-Sciences-Division, Milan, Italy) and maintained in a humified atmosphere of 5% CO2 at 37 °C. Cells were subcultivated at a ratio of 1.2 to 1.8 and the medium was changed every 3 days. CTX-TNA2 astrocytes were plated in 25 or 75 cm^2 flasks, according to experimental needing and cells between the eight and the 15 passage were used.
When indicated, the cells were treated with H2O2 300 µM for three hours and different concentrations of CBD (1–1000 nM) and CBG (1–1000 nM). The stock solutions were diluted in cell medium to the point that the concentration of DMSO in the samples was less than 0.0003%. Therefore, the addition of DMSO to the control samples was not necessary.
A FITC Annexin-V apoptosis detection kit (BD Pharmingen, San Diego, CA, USA) was used to assess apoptosis, according to the manufacturer’s instructions. […] After the addition of 200 µL of binding buffer, samples were analyzed with a Cytoflex flow cytometer with the FL1 and FL3 detector in a log mode, using the Cytoexpert analysis software (both from Beckmann Coulter). […]

[4] = ABTS scavenging ability test; settings: mean ± S.D., n = 3
Procedure: For the 2,2′-azino-bis(3-ethylbenzothiazoline) 6-sulfonic acid (ABTS) radical scavenging assay, ABTS+ was produced directly by reacting 7 mM ABTS solution with 2.45 mM potassium persulfate and allowing the mixture to stand for […] in the dark at room temperature. Prior to beginning the assay, ABTS solution was diluted with methanol to an absorbance of 0.700 ± 0.02 at 734 nm. Sample solution was added to ABTS solution (2 mL) and mixed. The sample absorbance was read at 734 nm after a 30 min incubation at room temperature. The ABTS radical scavenging activity was expressed as IC50 values.

SMILES | effect on K+ 60 mM-induced increase in 3-HK level [1] | effect on 5-HT1A activity [2] | early apoptosis (Annexin-Vpos/PIneg cells) [3] | IC50 [4] | 3-HK level ([1]; basal conditions only)
C=C(C)[C@@H]1CCC(C)=C[C@H]1c1c(O)cc(CCCCC)cc1O [CBD, Cannabidiol] | successful in blunting | activated | reduce early apoptosis | 1040 ± 10 µM | –
CCCCCc1cc(O)c(C/C=C(\C)CCC=C(C)C)c(O)c1 [CBG, cannabigerol] | completely ineffective | moderately antagonized | reduce early apoptosis | 1030 ± 10 µM | reduce 3-HK
